From patent publication US9353072B2, “Antimicrobial substituted thiazoles and methods of use” (Purdue Research Foundation, priority 2012, dated 2016)
Values after ≈ are worked out from the molar mass of the structure shown. Read-outs that look alike come from different tables or passages of the source.

Assays:
[1] = system: MRSA USA500 (NRS385); assay: MIC/MBC broth microdilution, NRS385 (USA500); type: cell-based; conditions: Staphylococcus aureus
Procedure: (§1) Determination of minimum inhibitory concentration (MIC). The MICs of the lead thiazole compound (compound 1a) and nine derivatives tested against all 18 MRSA strains were determined, in triplicate samples, using the broth microdilution method in accordance with the recommendations contained in the CLSI guidelines.

[2] = system: MRSA NRS384 (USA300); assay: MIC/MBC broth microdilution, NRS384 (USA300); type: cell-based; conditions: Staphylococcus aureus
Procedure: as §1

[3] = system: MRSA ATCC 700699 (NRS1, VISA); assay: MIC/MBC broth microdilution, NRS1 (ATCC 700699); type: cell-based; conditions: Staphylococcus aureus
Procedure: as §1

[4] = system: MRSA USA400 (NRS123); assay: MIC/MBC broth microdilution, NRS123 (USA400); type: cell-based; conditions: Staphylococcus aureus
Procedure: as §1

[5] = system: VISA HIP07256 (NRS19); assay: MIC/MBC broth microdilution, NRS19 (VISA HIP07256); type: cell-based; conditions: Staphylococcus aureus
Procedure: as §1

[6] = system: MRSA ATCC 43300; assay: MIC/MBC broth microdilution, MRSA ATCC 43300; type: cell-based, Staphylococcus aureus; conditions: Staphylococcus aureus
Procedure: as §1

[7] = system: NRS107; assay: MIC/MBC broth microdilution, NRS107; type: cell-based; conditions: Staphylococcus aureus; for MIC: Table 8, read-out: MIC
Procedure: as §1

[8] = system: NRS194; assay: MIC/MBC broth microdilution, NRS194; type: cell-based; conditions: Staphylococcus aureus; for MIC: Table 8, read-out: MIC
Procedure: as §1

[9] = system: VISA LIM 3 (NRS37); assay: MIC/MBC broth microdilution, NRS37 (VISA LIM 3); type: cell-based; conditions: Staphylococcus aureus, Table 8, NRS37 (VISA); for MIC: read-out: MIC
Procedure: as §1

[10] = system: NRS119; assay: MIC/MBC broth microdilution, NRS119; type: cell-based; conditions: Staphylococcus aureus, Table 8, NRS119; for MIC: read-out: MIC
Procedure: as §1

[11] = Table 6, MRSA ATCC 43300, 128 μM down to 1.0 μM, 20 hours, read-out: MIC
[12] = Table 8, ATCC 43300, read-out: MIC
[13] = Table 8, NRS1 (VISA), triplicates, 20 hours, read-out: MIC
[14] = Table 8, NRS19 (VISA), read-out: MIC

SMILES: CCCCCCCCCc1ccc(-c2nc(C)c(/C(C)=N/NC(=N)N)s2)cc1 [Compound 1f]
- MIC ([1]; Table 2, MRSA USA500, read-out: Minimum Inhibitory Concentration): 4.4 µg/mL
- MIC ([2]; Table 2, MRSA USA300, read-out: Minimum Inhibitory Concentration): 2.2 µg/mL
- MIC ([3]; Table 2, MRSA ATCC 700699, read-out: Minimum Inhibitory Concentration): 1.1 µg/mL
- MIC ([4]; Table 2, MRSA USA400, read-out: Minimum Inhibitory Concentration): 4.4 µg/mL
- MIC ([5]; Table 2, VISA HIP07256, read-out: Minimum Inhibitory Concentration): 2.2 µg/mL

SMILES: CCCCc1ccc(-c2nc(C)c(/C(C)=N/NC(=N)N/N=C(\C)c3sc(-c4ccc(CCCC)cc4)nc3C)s2)cc1 [Compound M1]
- MIC [6, 11]: > 128 µM

SMILES: C/C(=N\NC(=N)N)c1sc(-c2ccc(N)cc2)nc1C [Compound M2, (E)-2-(1-(2-(4-aminophenyl)-4-methylthiazol-5-yl)ethylidene)hydrazinecarboximidamide]
- MBC ([1]; Table 8, NRS385, read-out: MBC): 128 µM (≈ 36.9 µg/mL)
- MIC ([1]; Table 8, NRS385, read-out: MIC): 128 µM
- MBC ([7]; Table 8, read-out: MBC): 64 µM (≈ 18.5 µg/mL)
- MIC [7]: 64 µM (≈ 18.5 µg/mL)
- MBC ([2]; Table 8, NRS384, read-out: MBC): 128 µM (≈ 36.9 µg/mL)
- MIC ([2]; Table 8, NRS384, read-out: MIC): 128 µM
- MBC ([8]; Table 8, read-out: MBC): 128 µM (≈ 36.9 µg/mL)
- MIC [8]: 128 µM (≈ 36.9 µg/mL)
- MIC [6, 11]: > 128 µM
- MBC ([6]; Table 8, ATCC 43300, read-out: MBC): 128 µM (≈ 36.9 µg/mL)
- MIC [6, 12]: 128 µM (≈ 36.9 µg/mL)
- MBC ([9]; read-out: MBC): 128 µM (≈ 36.9 µg/mL)
- MIC [9]: 64 µM (≈ 18.5 µg/mL)
- MBC ([3]; Table 8, NRS1 (VISA), read-out: MBC): 128 µM (≈ 36.9 µg/mL)
- MIC [3, 13]: 64 µM
- MBC ([10]; read-out: MBC): 64 µM (≈ 18.5 µg/mL)
- MIC [10]: 64 µM (≈ 18.5 µg/mL)
- MBC ([4]; Table 8, NRS123, read-out: MBC): 128 µM (≈ 36.9 µg/mL)
- MIC ([4]; Table 8, NRS123, read-out: MIC): 128 µM
- MBC ([5]; Table 8, NRS19 (VISA), read-out: MBC): 128 µM (≈ 36.9 µg/mL)
- MIC [5, 14]: 128 µM

SMILES: C/C(=N\NC(=N)N/N=C(\C)c1sc(-c2ccc(N)cc2)nc1C)c1sc(-c2ccc(N)cc2)nc1C [Compound M3]
- MIC [6, 11]: > 128 µM

SMILES: CC(=O)c1sc(-c2ccc(-c3ccc(O)cc3)cc2)nc1C [Compound M4, 1-(2-(4′-hydroxy-[1,1′-biphenyl]-4-yl)-4-methylthiazol-5-yl)ethanone]
- MIC [6, 11]: > 128 µM

SMILES: C/C(=N/NC(=N)N)c1sc(-c2ccc(-c3ccc(O)cc3)cc2)nc1C [Compound M5, (Z)-2-(1-(2-(4′-hydroxy-[1,1′-biphenyl]-4-yl)-4-methylthiazol-5-yl)ethylidene)hydrazinecarboximidamide]
- MIC [6, 11]: > 128 µM

SMILES: CC(=O)c1sc(-c2ccc(-c3cccc4ccccc34)cc2)nc1C [Compound M6, 1-(4-methyl-2-(4-(naphthalen-1-yl)phenyl)thiazol-5-yl)ethanone]
- MIC ([1]; Table 8, NRS385, read-out: MIC): > 128 µM
- MIC [7]: > 128 µM
- MIC ([2]; Table 8, NRS384, read-out: MIC): > 128 µM
- MIC [8]: > 128 µM
- MIC [6, 11]: > 128 µM
- MIC [6, 12]: > 128 µM
- MIC [9]: > 128 µM
- MIC [3, 13]: > 128 µM
- MIC [10]: > 128 µM
- MIC ([4]; Table 8, NRS123, read-out: MIC): > 128 µM
- MIC [5, 14]: > 128 µM

SMILES: CC(=O)c1sc(-c2ccc(-c3cc(C)cc(C)c3)cc2)nc1C [Compound M7, 1-(2-(3′,5′-dimethyl-[1,1′-biphenyl]-4-yl)-4-methylthiazol-5-yl)ethanone]
- MIC [6, 11]: > 128 µM

SMILES: CC(=O)c1sc(-c2ccc(-c3ccc(F)cc3)cc2)nc1C [Compound M8, 1-(2-(4′-fluoro-[1,1′-biphenyl]-4-yl)-4-methylthiazol-5-yl)ethanone]
- MIC ([1]; Table 8, NRS385, read-out: MIC): > 128 µM
- MIC [7]: > 128 µM
- MIC ([2]; Table 8, NRS384, read-out: MIC): > 128 µM
- MIC [8]: > 128 µM
- MIC [6, 11]: > 128 µM
- MIC [6, 12]: > 128 µM
- MIC [9]: > 128 µM
- MIC [3, 13]: > 128 µM
- MIC [10]: > 128 µM
- MIC ([4]; Table 8, NRS123, read-out: MIC): > 128 µM
- MIC [5, 14]: > 128 µM

SMILES: CC(=O)c1ccc(-c2ccc(-c3nc(C)c(C(C)=O)s3)cc2)cc1 [Compound M9, 1-(4′-(5-acetyl-4-methylthiazol-2-yl)-[1,1′-biphenyl]-4-yl)ethanone]
- MIC ([1]; Table 8, NRS385, read-out: MIC): > 128 µM
- MIC [7]: > 128 µM
- MIC ([2]; Table 8, NRS384, read-out: MIC): > 128 µM
- MIC [8]: > 128 µM
- MIC [6, 11]: > 128 µM
- MIC [6, 12]: > 128 µM
- MIC [9]: > 128 µM
- MIC [3, 13]: > 128 µM
- MIC [10]: > 128 µM
- MIC ([4]; Table 8, NRS123, read-out: MIC): > 128 µM
- MIC [5, 14]: > 128 µM

SMILES: CC(=O)c1sc(-c2ccc(-c3ccc(C(F)(F)F)cc3)cc2)nc1C [Compound M10, 1-(4-methyl-2-(4′-(trifluoromethyl)-[1,1′-biphenyl]-4-yl)thiazol-5-yl)ethanone]
- MIC ([1]; Table 8, NRS385, read-out: MIC): > 128 µM
- MIC [7]: > 128 µM
- MIC ([2]; Table 8, NRS384, read-out: MIC): > 128 µM
- MIC [8]: > 128 µM
- MIC [6, 11]: > 128 µM
- MIC [6, 12]: > 128 µM
- MIC [9]: > 128 µM
- MIC [3, 13]: > 128 µM
- MIC [10]: > 128 µM
- MIC ([4]; Table 8, NRS123, read-out: MIC): > 128 µM
- MIC [5, 14]: > 128 µM

SMILES: CC(=O)c1sc(-c2cccc(F)c2)nc1C [Compound M15, 1-(2-(3-fluorophenyl)-4-methylthiazol-5-yl)ethanone]
- MIC ([6]; 20 h): > 128 µM

SMILES: CCCCCCCC#Cc1ccc(-c2nc(C)c(/C(C)=N\NC(=N)N/N=C(\C)c3sc(-c4ccc(C#CCCCCCCC)cc4)nc3C)s2)cc1 [Compound M18]
- MIC ([6]; 20 h): > 128 µM
